Eleven compounds from patent publication US6156790A, “C-10 carbon-substituted artemisinin-like trioxane compounds having antimalarial, antiproliferative and antitumor activities” (priority 1997, dated 2000) can be followed below.

Some results are limits rather than exact numbers.

What is called IC50 is the midpoint of a concentration-inhibition curve. A low value points to inhibition by little substance.

For assay [1], the system named is chloroquine-sensitive P. falciparum (NF54). The experiment in a line: In vitro antimalarial activity ([3H]hypoxanthine incorporation). The class given is cell-based. Conditions: for IC50: Plasmodium falciparum, NF54; for IC50 compared with artemisinin: in words. As to the method:
Activity was determined by measuring the incorporation of [^3 H]hypoxanthine, by the methods of Desjardins and Milhouse, with the following modofications, see […].; Haynes, […]. Antimicrob. Agents Chemother., 16:710 (1979); Milhous, W. K.; Weatherly, […].; Antimicrob. Agents Chemother., 27: 525 (1985). […] Parasitemia was maintained at 0.05-3% and doubling time at approximately 15 hours by twice weekly change of medium and replenishment with fresh erythrocytes. […] Sigma-Aldrich #27,043-1). DMSO solutions were diluted 500-fold in medium, serially diluted in 0.2% DMSO in medium (to maintain constant solvent concentration), then 100 μL aliquots were pipetted into microtiter plate wells (Costar 3595). […] Plates included at least 8 wells of no drug controls (4 with and 4 without DMSO) and 4 wells of uninfected erythrocytes. […] Cells were harvested (Brandel MB-48R) onto GF-C glass filters (Brandel). The filters were washed five times with 3 mL water per sample spot, dried under a heat lamp, and counted (Beckman Model LS-6500) in scintillation cocktail (ICN Cytoscint). Decays per minute (dpm) values were downloaded and analyzed (Power MFacintosh 7200/90; Microsoft Excel 5.0), to yield the mean and standard deviation at each drug concentration.

The subject of assay [2] is murine keratinocyte cell line PE. Nature of the assay: growth inhibition of PE cells (MTT assay). The following applies: 100 nanomolar. The class given is cell-based. As to the method: To determine the inhibitory effect of the compositions of the present invention on cell proliferation, screening assays were performed on a murine keratinocyte cell line PE. Cell line PE was chosen for its particular sensitivity to the induction of ornithine decarboxylase (ODC) activity by the extensively characterized tumor promoter TPA. […] PE cell culture medium consisted of Eagle's minimal essential medium without calcium chloride (Whittaker Bioproducts, Walkersville, Mass.) supplemented with 8% chelexed fetal calf serum and 1% antibiotic-antimycotic (Gibco BRL) and the addition of CaCl2 to 0.05 mM Ca^++.
Growth Inhibition. Growth curves, shown in FIGS. 1 and 2, for PE cells treated with calcitriol and the C-10 carbon-substituted dimers 21, 22, 26, 27, and 28 generated by assay for the reduction of the tetrazolium-based compound MTT, see Charmichael, et al., Cancer Res., 47:936-942 (1987). […] PE cells were seeded at a density of 5,000 cells/well in 50 μL of medium into 96-well microtiter plates. Twelve hours later, the medium was removed, and cells were treated with 100 μL of fresh medium into which the appropriate amount of calcitrol or analog dissolved in dimethyl sulfoxide (DMSO) had been added, with the concentration of DMSO held constant at 0.1%. […] At 24-hour intervals following the initial treatment of the cells with compounds, 0.1 mg (50 μL of a 2 mg/mL solution) of MTT was added to each well. After 4 hours, the MTT was removed and DMSO added to dissolve the blue formazan dye. Using a microtiter plate reader, the A505 was then determined and cell number calculated from blank-subtracted absorbance values.
(Formazan colour is commonly taken as a measure of viable cells.)

The next assay deals with RXF 393. Nature of the assay: cells. Conditions: Homo sapiens.
For another assay, the system named is HL-60(TB). The experiment in a line: cells. Conditions: Homo sapiens, HL-60, read-out: Log10 LC50 (converted).
In a further assay the test system is NCI-H23. The experiment in a line: NCI 60 cell line screen (SRB), non-small cell lung cancer. The following applies: Homo sapiens, read-out: Log10 GI50 (converted). The class given is cell-based.
The test system of a further assay is 60 cell line panel. Nature of the assay: NCI 60 cell line screen, whole panel. The class given is cell-based. Conditions: panel.
The next assay concerns ACHN. The experiment in a line: cells. Conditions: Homo sapiens.
The test system of a further assay is UACC-62. Nature of the assay: cells. The class given is cell-based. The following applies: Homo sapiens, read-out: Log10 TGI (converted).
A further assay relates to IGROVI. Nature of the assay: cells. The following applies: 60 cell, read-out: Log10 GI50 (converted).
For another assay, the system named is EKVX. Nature of the assay: NCI 60 cell line screen (SRB), non-small cell lung cancer. The class given is cell-based. Conditions: Homo sapiens, read-out: Log10 GI50 (converted).
The next assay deals with CAKI-1. The experiment in a line: NCI 60 cell line screen (SRB), renal cancer. The following applies: Homo sapiens.

`COc1ccc2cc([C@@H]3O[C@@H]4O[C@@]5(C)CC[C@H]6[C@H](C)CC[C@@H]([C@H]3C)[C@@]46OO5)c(OC)cc2c1` [Monomer 15, 10α-(2',7'-dimethoxynaphth-3'-yl)deoxoartemisinin] yielded an IC50 in assay [1] (survey data (preliminary)) of 11 nM.

`C[C@H]1[C@@H](C#Cc2ccc(Cl)cc2)O[C@@H]2O[C@@]3(C)CC[C@H]4[C@H](C)CC[C@@H]1[C@@]24OO3` [Monomer 9, 10β-(4'-Chlorophenylethynyl) deoxoartemisinin] registered an IC50 in assay [1] (survey data (preliminary)) of 16 nM.

`C[C@H]1[C@H](c2ccco2)O[C@@H]2O[C@@]3(C)CC[C@H]4[C@H](C)CC[C@@H]1[C@@]24OO3` [Monomer 17] registered a concentration for half-maximal inhibition (IC50) in assay [1] (survey data (preliminary)) of 1.5 nM. For the same compound, in assay [1], the “IC50 compared with artemisinin” value is “lower than that of artemisinin”.

For the compound `C[C@H]1[C@@H](C#Cc2cccc(C#C[C@H]3O[C@@H]4O[C@@]5(C)CC[C@H]6[C@H](C)CC[C@@H]([C@H]3C)[C@@]46OO5)c2)O[C@@H]2O[C@@]3(C)CC[C@H]4[C@H](C)CC[C@@H]1[C@@]24OO3` [Dimer 27], in assay [2], the “antiproliferative activity compared with calcitriol” value is listed as “at least as antiproliferative as calcitrol”.

For the compound `CO[C@H]1O[C@@H]2O[C@@]3(C)CC[C@H]4[C@H](C)CC[C@@H]([C@H]1C)[C@@]24OO3` [Artemether, artemether, reference compound], in [1], half-maximal inhibition (IC50) was put at 5.4 nM and the “IC50 compared with artemisinin” value was “lower than that of artemisinin”.

Regarding `C[C@H]1[C@@H](C#Cc2ccc(C#C[C@H]3O[C@@H]4O[C@@]5(C)CC[C@H]6[C@H](C)CC[C@@H]([C@H]3C)[C@@]46OO5)cc2)O[C@@H]2O[C@@]3(C)CC[C@H]4[C@H](C)CC[C@@H]1[C@@]24OO3` [Dimer 28], the “antiproliferative activity compared with calcitriol” value in assay [2] is given as “at least as antiproliferative as calcitrol”.

As to `CC(=O)O[C@H]1C(=O)[C@@]2(C)[C@H]([C@H](OC(=O)c3ccccc3)[C@]3(O)C[C@H](OC(=O)[C@H](O)[C@@H](NC(=O)c4ccccc4)c4ccccc4)C(C)=C1C3(C)C)[C@]1(OC(C)=O)CO[C@@H]1C[C@@H]2O` [Paclitaxel, paclitaxel, reference compound], the CC50 in the assay with RXF 393 (RXF 393, read-out: Log10 LC50 (converted)) was > 100 µM; in the assay with HL-60(TB), > 29.5 µM; in the assay with ACHN (read-out: Log10 LC50 (converted)), 35.5 µM; in the assay with CAKI-1 (CAKI-1, read-out: Log10 LC50 (converted)), > 100 µM. For the same compound, the IC (TGI) was > 100 µM with RXF 393 (RXF 393, read-out: Log10 TGI); 12.6 µM in the assay with ACHN (read-out: Log10 TGI); 19.5 µM with UACC-62; 91.2 µM with CAKI-1 (CAKI-1, read-out: Log10 TGI). The GI50 with NCI-H23 is 0.0759 nM; in the assay with 60 cell line panel (60 cell, read-out: Log10 GI50 Delta (converted)), 0.0708 nM; with IGROVI, 2.45 nM; in the assay on EKVX, 0.214 nM. The “Log10 TGI Delta” value in the assay on 60 cell line panel is -4.54. For the same compound, the “Log10 TGI Range” value with 60 cell line panel is listed as 7.20.

In assay [1] (survey data (preliminary)), `C[C@H]1[C@H](c2cccn2C)O[C@@H]2O[C@@]3(C)CC[C@H]4[C@H](C)CC[C@@H]1[C@@]24OO3` [Monomer 16, 10α-(N-methylpyrrol-2'-yl)deoxoartemisinin] yielded an IC50 of 8.4 nM. Further, the “IC50 compared with artemisinin” value in [1] is “lower than that of artemisinin”.

For the compound `COc1cc(OC)c([C@@H]2O[C@@H]3O[C@@]4(C)CC[C@H]5[C@H](C)CC[C@@H]([C@H]2C)[C@@]35OO4)cc1[C@@H]1O[C@@H]2O[C@@]3(C)CC[C@H]4[C@H](C)CC[C@@H]([C@H]1C)[C@@]24OO3` [Dimer 26], the “antiproliferative activity compared with calcitriol” value in [2] was “at least as antiproliferative as calcitrol”.

With `COc1ccc([C@@H]2O[C@@H]3O[C@@]4(C)CC[C@H]5[C@H](C)CC[C@@H]([C@H]2C)[C@@]35OO4)c(OC)c1` [Monomer 13], half-maximal inhibition in [1] (survey data (preliminary)) (IC50) required 8.9 nM. For the same compound, in assay [1], the “IC50 compared with artemisinin” value is given as “lower than that of artemisinin”.

For `COc1cc(OC)c([C@@H]2O[C@@H]3O[C@@]4(C)CC[C@H]5[C@H](C)CC[C@@H]([C@H]2C)[C@@]35OO4)c(OC)c1` [Monomer 14], the IC50 in assay [1] (survey data (preliminary)) stood at 11 nM.
